Paper PMC12656566, “Toxicokinetic Characterization of MDM Hydantoin via Stable Metabolite DMH: Population Modeling for Predicting Dermal Formaldehyde Formation” (Toxics, 2025)
“And” between values parts separate entries of the source, which are not always exact repeats. Identical values can stand only once. Like-named read-outs stand apart in the source and are kept apart here.

Test: Toxicokinetics after intravenous injection of MDMH or DMH (plasma, LC-MS/MS, non-compartmental analysis)
Assay type: in vivo
Conditions: rats; for half-life / clearance / Vd / AUC(0-t) / C0 / AUC(0-inf): male, Sprague-Dawley, rat; for half-life / clearance / Vd: plasma; for half-life: iv; for Vd: read-out: Vz; for AUC(0-inf): read-out: AUCinfinity
Description: An API 4000 LC-MS/MS system (Applied Biosystems/MDS Sciex, Foster City, CA, USA) coupled with an Agilent 1100 HPLC (Agilent Technologies, Santa Clara, CA, USA) was used for determination of MDMH and DMH in rat plasma. The analytes were separated on a Synergi Fusion-RP 80 Å (150 × 2.0 mm, i.d., 4 µm;) with a Security Guard™ Cartridge AJ0-7556 (Phenomenex, Torrance, CA, USA), and the column oven temperature was maintained at 30 °C. An isocratic solvent system of distilled water and methanol (80:20, v/v) was used with a runtime of 7 min. The injection volume was 10 µL, and the flow rate was maintained at 0.2 mL/min.
For plasma sample preparation, formic acid was immediately added to blood samples upon collection to achieve a final concentration of 0.5% to prevent potential enzymatic degradation of MDMH, and all sample preparation procedures were conducted at ≤4 °C to minimize temperature-dependent decomposition of the analytes. For analysis, 50 μL of internal standard solution and 100 μL of methanol containing 0.5% formic acid (as precipitating solvent) were added to 50 μL of plasma, followed by vortex-mixing for 2 min. After centrifugation at 21,206× g for 10 min, 40 μL of supernatant was mixed with 160 μL of 0.5% formic acid in distilled water, and 10 μL was injected into the LC-MS/MS system.
All animal care and experiments were conducted to evaluate the toxicokinetics of MDMH and DMH according to the Guidelines for the Care and Use of Animal approved by the Ethics Committee for Treatment of Laboratory Animal at Daegu Catholic University (CUD-2019-020). To evaluate the toxicokinetics of MDMH and DMH in rats after intravenous injection (IV) or transdermal application (TD). Male Sprague-Dawley rats (9 weeks, body weight 260–310 g) (Hyochang Science Co., Daegu, Republic of Korea) were kept in plastic cages and fed regularly with water and feed. Rats were acclimated for a minimum of 1 week prior to the experiment under conditions keeping a 12 h light-dark cycle, a temperature of 23 ± 2 °C, and a relative humidity of 50 ± 10%. The rats were cannulated using polyethylene tubing (0.58 mm i.d., 0.96 mm o.d., Natsume, Tokyo, Japan) in the jugular vein after intraperitoneal injection at a dose of 0.9 mL/kg of Zoletil 50 (Virbac, Carros, France).
For IV injection, MDMH or DMH was dissolved in distilled water, respectively, and the dose was 50 or 10 mg/kg, respectively. Blood samples were collected via the jugular vein in the MDMH administration group at 0, 0.5, 1, 1.5, 2, 2.5, 3, 5, 10, and 15 min and 1, 2, 4, 8, 12, and 24 h (16 points/head), and in the DMH administration group at 0, 2, 5, 10, 15, 30 min and 1, 2, 4, 8, 12, and 24 h (12 points/head). Plasma samples were harvested by centrifugation of obtained blood for 10 min at 4000× g, and stored at −20 °C until analysis.
The toxicokinetic parameters were calculated by standard non-compartmental analysis using the non-linear least squares regression program Phoenix™ WinNonlin® 6.1 (Pharsight, Cary, NC, USA).
The non-compartmental toxicokinetic parameters included terminal half-life (t1/2), area under the plasma concentration versus time curve from time zero to the last observation time point (AUClast) and to infinity (AUCinfinity), volume of distribution (Vz), and systemic clearance (CL). The maximum plasma concentration (Cmax) and the time to reach Cmax (Tmax) were obtained directly from the observed data. Absolute bioavailability (F) was estimated as the ratio of the dose-normalized AUCinfinity of MDMH and DMH following TD application compared to IV injection. The fraction metabolized (Fm) was calculated as the ratio of metabolite AUC to parent AUC after correction for molecular weight differences, accounting for the stoichiometric conversion relationship:(1) Fm=AUCDMH·MWMDMH/AUCMDMH·MWDMH where MWMDMH = 158.16 g/mol and MWDMH = 128.13 g/mol. […]

[1] = DMH in plasma after IV injection of DMH 10 mg/kg, n = 5
[2] = DMH after IV injection of DMH 10 mg/kg, n = 5
[3] = MDMH after IV injection of MDMH 50 mg/kg, n = 5
[4] = MDMH in plasma after IV injection of MDMH 50 mg/kg, n = 5

SMILES	duration of initial distribution phase (alpha phase) (DMH after direct intravenous administration of DMH)	t1/2 [1]	half-life (10 mg/kg, DMH after IV injection of DMH 10 mg/kg, read-out: t1/2 (hour equivalent))	half-life (10 mg/kg, DMH in plasma after IV injection of DMH 10 mg/kg, n = 5, read-out: t1/2)	clearance [2]	Vd [2]	AUC(0-t) [1]	C0 [1]	AUC(0-inf) [1]	Fm to DMH (fraction of MDMH metabolized to DMH) (IV injection of MDMH 50 mg/kg, AUC ratio adjusted for molecular weight)	time until parent compound plasma concentrations reached below the quantification limit (MDMH after i.v. injection of MDMH)	half-life (50 mg/kg, MDMH after IV injection of MDMH 50 mg/kg, read-out: t1/2 (hour equivalent))	half-life (50 mg/kg, MDMH in plasma after IV injection of MDMH 50 mg/kg, n = 5, mean ± S.D., read-out: t1/2)	clearance [3]	Vd [3]	AUC(0-t) [4]	C0 [4]	AUC(0-inf) [4]
CC1(C)NC(=O)NC1=O [DMH, 5,5-dimethylhydantoin]	approximately 30 min	3.0212 ± 0.5513 h	3.02 h	3.02 ± 0.55 h	4 mL/min/kg	1 ± 0.47 L/kg	47100 ± 29900 ng·h/mL	26.9 ± 18.3 µg/mL	55000 ± 36800 ng·h/mL	–	–	–	–	–	–	–	–	–
CC1(C)C(=O)NC(=O)N1CO [MDMH, 1-(Hydroxymethyl)-5,5-dimethylhydantoin]	–	–	–	–	–	–	–	–	–	97.6 ± 9.6% and 97.59 ± 9.64%	≤ 5 min	0.007 h	0.00667 ± 0.00167 h	1570 mL/min/kg	0.84 ± 0.04 L/kg	570 ± 190 ng·h/mL	77.9 ± 28.1 µg/mL	580 ± 180 ng·h/mL
